{"source": "patent US12472193B2", "about": "“Methods and compositions for treating and preventing respiratory related diseases and conditions with xylitol-headgroup lipid analogs” (National Jewish Health, priority 2017, dated 2025)", "key": {"[1]": {"procedure": "18:1 DEPX was prepared as liposomes so that 500 μg of lipid was delivered in a 50 μL volume. 6-week old female BALB/C mice were purchased from Jackson laboratories and divided into groups of 5. Each group was inoculated with 500 μg of 18:1 DEPX by intranasal inoculation. Groups of 5 mice were sacrificed and lavaged at the following time points: 0 hours, 3 hours, 6 hours, 18 hours and 24 hours. Lipids were extracted from mice BALF by Bligh-Dyer (“A rapid method of total lipid extraction and purification.,” Can. J. Biochem. Physiol., vol. 37, no. 8, pp. 911-7, August 1959), and quantified by phosphorus analysis. 150 nmol of lipid extracted from each mouse was separated by lipid class utilizing the Touchstone solvent system (refer to methods) and thin layer chromatography. 0.1% ANSA and UV light was used to visualize lipids from the thin layer chromatogram. Individual xylitol lipid bands were cut out from the silica and quantified by phosphorus analysis.\nTo determine how quickly 18:1 DEPX turns over in the mouse lung, female BALB/C mice that were 6-8 weeks old were inoculated with 500 μg of lipid by intranasal delivery in a 50 μL volume. Mice were sacrificed at time periods of, 0 hours, 3 hours, 6 hours, 18 hours and 24 hours following lipid delivery and bronchoalveolar lavage fluid (BALF) was collected. Lipids were extracted from BALF by the Bligh-Dyer method and total lipid extracts were quantified by phosphorus analysis (G. Rouser, et al., “Quantitative analysis of phospholipids by thin-layer chromatography and phosphorus analysis of spots.,” Lipids, vol. 1, no. 1, pp. 85-6, January 1966). To separate the various lipid classes present in BALF, thin layer chromatography on a Merck Silica 60 glass plate with a touchstone solvent system was utilized. The silica plate was scored in lanes according to number of samples, 150 nmol of total lipid was spotted onto each lane and solvent was developed for 90 minutes. The plate was air dried and sprayed with 0.1% ANSA-water then exposed to UV light to reveal migration of lipids on the plate. The spots corresponding to xylitol lipids were cut out and quantified by phosphorous analysis.\nBecause toxicity of the synthetic phospholipid, 18:1 DEPX, is unknown lower levels of lipid were delivered to mice to determine if the diether lipid persists in the mouse lung after 24 hours. The previous experiment was repeated with 250 μg, 150 μg and 75 μg 18:1 DEPX delivered to mice. 250 μg was used as a starting point for mice sacrificed at 0 hours following lipid delivery. Subsequently groups of mice given 250 μg, 150 μg and 75 μg of 18:1 DEPX were sacrificed 24 hours following intranasal delivery of lipid. Mouse lungs were lavaged 2 times with 1 mL PBS. Total lipids were extracted by the Bligh-Dyer method from BALF and separated on a Merck Silica 60 glass plate using a touchstone solvent system for separation of lipids by headgroup. Xylitol lipid spots were excised from the silica and quantified by phosphorus assay."}, "RSV": {"test_system": "RSV", "experiment": "18:1 DEPX interference with RSV infection in vivo (BALB/c mice)", "set-up": "species or system mouse", "procedure": "Six-week-old female BALB/c mice were obtained from Jackson Laboratory. Mice were anesthetized with isoflurane and through intranasal inoculation a 50 μL volume of PBS control, 18:1 DEPX lipid alone, 18:1 DEPX+RSV or RSV only was delivered to mice. Mice were infected with 1×10^7 pfu/mL RSV. 18:1 DEPX liposomes were delivered to mice at a final amount of 100 μg. For lipid antagonism, RSV and 18:1 DEPX were mixed together in PBS prior to inoculation. Five days following initial infection, mice were euthanized by asphyxiation with carbon dioxide following prescribed guidelines by the IACUC. Next, mice were dissected to expose the trachea where a small cut was made to insert a luer stub. The lungs were then lavaged with 1 mL of saline. The chest cavity was opened and the lungs perfused with PBS and then removed. The left lung was homogenized in 1 mL of serum-free DMEM, the homogenates were centrifuged at 3800 rcf for 15 minutes at 4° C. and supernatant was used for quantitative plaque assay analysis. Lower right lungs were fixed overnight in 10% buffered formalin, then dehydrated and paraffin-embedded. Lungs were then sliced and stained with Hematoxylin-Eosin (H&E) for microscopy pictures and histopathological scoring. Total cell counts were determined from BALF and cell types were assessed by cytospin. IFN-γ was quantified by ELISA from the cell-free supernatants of BALF. The upper right lung was homogenized, RNA was extracted, converted to cDNA and RSV replication was determined by quantitative PCR of the F protein.\nFemale BALB/C mice were obtained from Jackson Laboratories at 6 weeks of age. The experiment consisted of four groups, a PBS control, 18:1 DEPX liposomes alone, 18:1 DEPX liposomes+RSV and RSV alone. Mice were inoculated with RSV at 1×10^7 pfu/mL. 100 μg 18:1 DEPX was the dose tested for protective effects in the mouse lung. Each mouse group underwent intranasal inoculation for delivery of experimental conditions in a final volume of 50 μL. Mice were monitored daily and body weight was recorded. At the height of RSV infection on day 5, the mice were euthanized. Bronchoalveolar lavage fluid (BALF) was collected, the chest cavity was opened and the lungs removed. The left lobe of the lungs was homogenized in serum-free DMEM, centrifuged at 3800 rcf for 15 minutes at 0° C. and the supernatant collected for quantitative plaque assay described in the previous chapter. The lower right lobe of the lung was fixed overnight in 10% buffered formalin and then processed by paraffin embedding, slicing and fixing of the lung to a microscope slide and H&E staining. The upper right lobe of the lung was homogenized, RNA was extracted and converted to cDNA and then quantitative real-time PCR was used to determine RSV replication by quantification of the F protein. Cells within BALF were quantified and assessed for cell populations by cytospin. BALF supernatant was stored and subsequently used for IFNγ quantification.\nOn day 5 following RSV infection mice were sacrificed by carbon dioxide asphyxiation according to IACUC protocol. Mice were dissected to expose the trachea where a small cut was made for the insertion of a leur stub and the lungs were lavaged with 1 mL of saline. A 20 μL aliquot was obtained from BALF collected and cellular infiltration into the lungs was quantified using a hemocytometer. The remaining lavage fluid was centrifuged at 500×g for 5 minutes, supernatant was collected and cells were resuspended in PBS for cytospin. In studies shown in FIG. 11, mice were challenged with either saline (CNTL), or 10^7 virus (RSV), or virus plus 18:1 DEPX (18:1 DEPX+RSV), or lipid alone (18;1 DEPX). The mice received all agents in a volume of 50 μl applied intranasally. On day 6 the mice were euthanized and the lungs were lavaged with saline. The cells in the lavage were recovered by centrifugation and quantified by counting using a hemocytometer. In RSV infected mice cell numbers were ˜120×10^4. […]"}, "[2]": {"settings": "18:1 DEPX alone, 100 μg intranasal"}}, "note": "Entries after “also recorded” stand apart in the source; their conditions may differ. Like-named read-outs stand apart in the source and are kept apart here."}
{"smiles": "CCCCCCCCC=CCCCCCCCCOCC(COP(=O)(O)OCC(O)C(O)C(O)CO)OCCCCCCCCC=CCCCCCCCC", "note": "(mixture of isomers) [18:1 DEPX, sn-1-O-octadecenyl, sn-2-O-octadecenyl sn-3 glycerol phosphoxylitol]", "values": [{"measurement": "xylitol lipid recovered from BALF", "setting": "[1]; 75 μg intranasal, 24 hours", "result": 10, "unit": "µg"}, {"measurement": "xylitol lipid recovered from BALF", "setting": "[1]; 150 μg intranasal, 24 hours", "result": 15, "unit": "µg"}, {"measurement": "xylitol lipid recovered from BALF", "setting": "[1]; 250 μg intranasal, 0 hours", "result": "Around 40 μg"}, {"measurement": "xylitol lipid recovered from BALF", "setting": "[1]; 250 μg intranasal, 24 hours", "result": "around 20 μg"}, {"measurement": "18:1 DEPX detected in recovered lavage", "setting": "[1]; 500 μg intranasal, 24 hours", "result": "about 20 nmol"}, {"measurement": "18:1 DEPX in 150 nmol of total BALF lipid loaded", "setting": "[1]; 500 μg intranasal, time zero", "result": "approximately 42 nmol"}, {"measurement": "half-life in the mouse lung", "setting": "[1]; intranasal", "result": "around 24 hours"}, {"measurement": "starting material recovered after 24 hours", "setting": "[1]; mice", "result": 50, "unit": "%"}, {"measurement": "daily body weight, lipid alone vs control mice", "setting": "RSV; [2]", "result": "no difference in daily body weight"}, {"measurement": "number of cells in lavage, lipid alone vs control", "setting": "RSV; [2]", "result": "no difference in number of cells"}, {"measurement": "IFNγ in BALF compared to RSV alone", "setting": "RSV; 18:1 DEPX+RSV mice", "result": "reduced; also recorded: significantly lower"}, {"measurement": "cell numbers in lavage", "setting": "RSV; 18:1 DEPX+RSV mice, 1 mL BALF, FIG. 11", "result": "~20×10^4"}, {"measurement": "IFNγ in BALF", "setting": "RSV; 18:1 DEPX+RSV mice, day 5", "result": "Around 1 ng/mL"}, {"measurement": "cellular infiltration into the lungs (BALF)", "setting": "RSV; 18:1 DEPX+RSV vs RSV alone", "result": "suppresses an overabundance of cellular infiltration; also recorded: decreased number of inflammatory cellular infiltrates; also recorded: suppresses influx of inflammatory cells; also recorded: reduced cellular infiltrates; also recorded: significantly lower amounts of cellular infiltrates"}, {"measurement": "reduction of viral plaque number", "setting": "RSV; 18:1 DEPX+RSV vs RSV alone", "result": 50, "unit": "%"}, {"measurement": "lung histopathology", "setting": "RSV; 18:1 DEPX+RSV vs RSV alone, H&E", "result": "appeared less affected by the virus"}, {"measurement": "reduction in RSV expression (qPCR)", "setting": "RSV; first viral challenge experiment", "result": 2.6, "unit": "fold"}, {"measurement": "reduction of RSV expression by a factor of (qPCR)", "setting": "RSV; latter two experiments", "result": 6.2}, {"measurement": "viral load / RSV infection in lung compared to RSV mice", "setting": "RSV; plaque assay and qPCR", "result": "reduces viral copy number; also recorded: inhibited RSV infection; also recorded: reduced viral load"}]}
